{"source": "patent US4398937A", "about": "“Selective algaecides for control of cyanochloronta” (The University of Southern Mississippi, priority 1981, dated 1983)", "key": {"zooplankton": {"test_system": "zooplankton", "assay": "Field Experiment II, catfish pond, zooplankton", "format": "in vivo", "conditions": "2 ppm"}, "green algae [1]": {"test_system": "green algae", "assay": "Field Experiment III, pond, green algae", "format": "in vivo", "conditions": "2 ppm on 6/9/81", "procedure": "(§1) In Field Experiment III, a small two acre pond was monitored for a complete year for plankton organisms as before. Oscillatoria and Microcystis were usually the prevalent blue-green algae. On 6/9/81 the pond was experiencing a bloom consisting completely of Oscillatoria. Channel catfish from the ponds had the characteristic earthy, musty taste and odor of 4 and 4 respectively on the 0 to 5 scale. The pond was treated on this date with 2 ppm potassium ricinoleate, one of the selective algaecides, as before."}, "[2]": {"test_system": "sewage containing mostly green algae", "assay": "Sewage treatment test 1, mostly green algae", "conditions": "for cells/liter: after six days of aeration", "procedure": "Two experiments were performed on sewage to further illustrate the utility of these algaecides. In the first experiment, sewage containing mostly green algae was treated with relatively high concentrations of potassium ricinoleate."}, "Tribonema": {"test_system": "Tribonema", "assay": "Selective effect on algae in test tubes (Table V), Tribonema", "format": "cell-based", "conditions": "for cells/ml: average of 3 samples", "procedure": "(§2) Another laboratory experiment was run to further substantiate the selective effect of one of the algaecides, potassium ricinoleate. Two species of blue-green algae, Lyngbya and Cylindrospermum, and three species of green algae, Chlorella, Haematococcus and Stigeoclonium and Tribonema, a yellow-green alga of the division Chrysophycophyta, were treated as follows: Twenty ml test tubes of sterile BBM culture solution were innoculated with each alga. All species of algae were evaluated with three groups, control, 2.5 ppm algaecide and 7.5 ppm algaecide. Each group was run with triplicate samples.\n(§3) Controls were counted 6 days after innoculation, algaecide was added to the treatment groups seven days after innoculation and all test tubes were counted thirteen days after innoculation. The results are shown in Table V. After seven days, there was a 31% reduction in the Lyngbya cultures at 2.5 ppm algaecide and a 40% reduction at 7.5 ppm. After seven days, there was a 60% reduction in Cylindrospermum cultures at 2.5 ppm algaecide and a 72% reduction at 7.5 ppm. […] After thirteen days, there was a 55% reduction in numbers at both 2.5 ppm and 7.5 ppm. After twenty days there was a 27% reduction at both concentrations. […] They are, like blue-green algae, often associated with taste and odor problems."}, "Chlorella": {"test_system": "Chlorella", "assay": "Selective effect on algae in test tubes (Table V), Chlorella", "format": "cell-based", "conditions": "for cells/ml: 13 days after innoculation, average of 3 samples", "procedure": "as §2, §3"}, "[3]": {"test_system": "blue-green algae (Microcystis and Oscillatoria)", "assay": "Sewage treatment test 2, dense bloom of blue-green algae", "conditions": "ten days after treatment", "from_the_text": "Ten days after treatment aeration was stopped and cell debris was allowed to settle."}, "[4]": {"assay": "Field Experiment II, taste and odor of water", "format": "in vivo", "conditions": "2 ppm on 5/26/81"}, "Lyngbya": {"test_system": "Lyngbya", "assay": "Selective effect on algae in test tubes (Table V), Lyngbya", "format": "cell-based", "conditions": "for cells/ml: 13 days after innoculation, average of 3 samples", "procedure": "as §2, §3"}, "Fish (adult catfish)": {"test_system": "Fish (adult catfish)", "assay": "Field Experiment II, taste and odor of fish", "format": "in vivo", "conditions": "for Fish Odor / Fish Taste: 2 ppm on 5/26/81"}, "Channel catfish": {"test_system": "Channel catfish", "assay": "Field Experiment III, taste and odor of channel catfish", "format": "in vivo", "conditions": "2 ppm on 6/9/81; June 22", "procedure": "as §1"}, "green algae [5]": {"test_system": "green algae", "assay": "Field Experiment I, catfish pond, green algae and other phytoplankton", "format": "in vivo", "conditions": "10 ppm", "procedure": "1, 1980, to Mar. 19, 1981.\nOn July 30, 1980, most ponds had numbers of blue-green algae exceeding 2×10^6 cells/liter. These algae were predominantly Oscillatoria,Microcystis and Anacystis with smaller numbers of Nostoc, Anabaena and Lyngbya. The experimental pond had 1.2×10^6 cells/liter composed mainly of Microcystis sp. Large numbers of copepods and rotifers were present. On July 30, the pond was treated with 10 ppm potassium ricinoleate by distributing a 30% aqueous solution evenly through the water column by pump from a small boat. […] This is further substantiated by the dry weights and chlorophyll a levels."}, "[6]": {"conditions": "scale 0 to 5 (5 worst, 0 undetectable), 6/1/81"}, "[7]": {"conditions": "168 h, read-out: reduction in cultures"}}, "data": [{"smiles": "CCCCCC[C@@H](O)C/C=C\\CCCCCCCC(=O)[O-].[K+]", "values": [{"measurement": "Zoo #'s/liter", "setting": "zooplankton; 5/26/81 B post-treat, 4 p.m., Deep", "result": "755 #'s/liter"}, {"measurement": "Zoo #'s/liter", "setting": "zooplankton; 5/26/81 C post-treat, 4 p.m., Shallow", "result": "2270 #'s/liter"}, {"measurement": "Zoo #'s/liter", "setting": "zooplankton; 5/27/81 D, 9:40 p.m., Deep", "result": "0 #'s/liter"}, {"measurement": "Zoo #'s/liter", "setting": "zooplankton; 5/27/81 E, 9:40 p.m., Shallow", "result": "1510 #'s/liter"}, {"measurement": "Zoo #'s/liter", "setting": "zooplankton; 5/28/81 F, 7 a.m.", "result": "756 #'s/liter"}, {"measurement": "Zoo #'s/liter", "setting": "zooplankton; 5/28/81 G, 11 a.m.", "result": "2270 #'s/liter"}, {"measurement": "zooplankton after treatment", "setting": "zooplankton; through June, 1981", "result": "remained unchanged"}, {"measurement": "Cells/liter green algae", "setting": "green algae [1]; 6/10/81", "result": "3.0 × 10^3 Cells/liter"}, {"measurement": "Cells/liter green algae", "setting": "green algae [1]; 6/12/81", "result": "1.4 × 10^3 Cells/liter"}, {"measurement": "Cells/liter green algae", "setting": "green algae [1]; 6/22/81", "result": "3.5 × 10^5 Cells/liter"}, {"measurement": "cells/liter", "setting": "[2]; 18.4 ppm", "result": "1.91 × 10^5 cells/liter"}, {"measurement": "cells/liter", "setting": "[2]; 46.0 ppm", "result": "1.33 × 10^5 cells/liter"}, {"measurement": "cells/liter", "setting": "[2]; 92.0 ppm", "result": "2.30 × 10^5 cells/liter"}, {"measurement": "cells/liter", "setting": "[2]; 184.1 ppm", "result": "2.72 × 10^5 cells/liter"}, {"measurement": "effect on green algae", "setting": "[2]; six days after treatment", "result": "somewhat stimulated"}, {"measurement": "cells/ml", "setting": "Tribonema; 2.5 ppm, 13 days after innoculation", "result": 5885, "unit": "cells/ml"}, {"measurement": "cells/ml", "setting": "Tribonema; 2.5 ppm, 20 days after innoculation", "result": 10510, "unit": "cells/ml"}, {"measurement": "cells/ml", "setting": "Tribonema; 7.5 ppm, 13 days after innoculation", "result": 5335, "unit": "cells/ml"}, {"measurement": "cells/ml", "setting": "Tribonema; 7.5 ppm, 20 days after innoculation", "result": 10295, "unit": "cells/ml"}, {"measurement": "reduction in numbers", "setting": "Tribonema; both 2.5 ppm and 7.5 ppm, after thirteen days", "result": 55, "unit": "%"}, {"measurement": "reduction in numbers", "setting": "Tribonema; both concentrations (2.5 and 7.5 ppm), after twenty days", "result": 27, "unit": "%"}, {"measurement": "effect", "setting": "Chlorella; 2.5 and 7.5 ppm, after seven days", "result": "slightly inhibited"}, {"measurement": "cells/ml", "setting": "Chlorella; 2.5 ppm", "result": 44000, "unit": "cells/ml"}, {"measurement": "cells/ml", "setting": "Chlorella; 7.5 ppm", "result": 49000, "unit": "cells/ml"}, {"measurement": "cells/liter", "setting": "[3]; 2.5 ppm", "result": "8.3 × 10^5 cells/liter"}, {"measurement": "cells/liter", "setting": "[3]; 5.0 ppm", "result": "7.9 × 10^5 cells/liter"}, {"measurement": "cells/liter", "setting": "[3]; 10.0 ppm", "result": "6.6 × 10^5 cells/liter"}, {"measurement": "cells/liter", "setting": "[3]; 15.0 ppm", "result": "4.4 × 10^5 cells/liter"}, {"measurement": "state of enumerated suspended cells", "setting": "[3]", "result": "appeared dead"}, {"measurement": "Water Odor", "setting": "[4]; [6]", "result": 0}, {"measurement": "Water Taste", "setting": "[4]; [6]", "result": 1}, {"measurement": "Water Odor", "setting": "[4]; scale 0 to 5, 6/5/81", "result": 0}, {"measurement": "Water Taste", "setting": "[4]; scale 0 to 5, 6/5/81", "result": 1}, {"measurement": "Water Odor", "setting": "[4]; scale 0 to 5, 6/12/81", "result": 0}, {"measurement": "Water Taste", "setting": "[4]; scale 0 to 5, 6/12/81", "result": 0}, {"measurement": "Water Odor", "setting": "[4]; scale 0 to 5, 6/15/81", "result": 0}, {"measurement": "Water Taste", "setting": "[4]; scale 0 to 5, 6/15/81", "result": 0}, {"measurement": "cells/ml", "setting": "Lyngbya; 2.5 ppm", "result": 2340, "unit": "cells/ml"}, {"measurement": "cells/ml", "setting": "Lyngbya; 7.5 ppm", "result": 2010, "unit": "cells/ml"}, {"measurement": "inhibition of growth at 2.5 ppm", "setting": "Lyngbya; [7]", "result": 31, "unit": "%"}, {"measurement": "inhibition of growth at 7.5 ppm", "setting": "Lyngbya; [7]", "result": 40, "unit": "%"}, {"measurement": "Fish Odor", "setting": "Fish (adult catfish); [6]", "result": 2}, {"measurement": "Fish Taste", "setting": "Fish (adult catfish); [6]", "result": 3}, {"measurement": "Fish Odor", "setting": "Fish (adult catfish); scale 0 to 5, 6/5/81", "result": 1}, {"measurement": "Fish Taste", "setting": "Fish (adult catfish); scale 0 to 5, 6/5/81", "result": 2}, {"measurement": "Fish Odor", "setting": "Fish (adult catfish); scale 0 to 5, 6/12/81", "result": 1}, {"measurement": "Fish Taste", "setting": "Fish (adult catfish); scale 0 to 5, 6/12/81", "result": 1}, {"measurement": "Fish Odor", "setting": "Fish (adult catfish); scale 0 to 5, 6/15/81", "result": 0}, {"measurement": "Fish Taste", "setting": "Fish (adult catfish); scale 0 to 5, 6/15/81", "result": 0}, {"measurement": "earthy musty taste and odor of fish", "setting": "Fish (adult catfish); 2 ppm, over a three week period", "result": "eliminated"}, {"measurement": "earthy, musty taste and odor of sample fish", "setting": "Channel catfish", "result": "lost all of the earthy, musty taste and odor"}, {"measurement": "Cells/Liter of green algae", "setting": "green algae [5]; 7/31 post-treatment (treated July 30, 1980)", "result": "6.2 × 10^4 Cells/Liter"}, {"measurement": "Cells/Liter of green algae", "setting": "green algae [5]; 8/1 post-treatment", "result": "5.0 × 10^4 Cells/Liter"}, {"measurement": "Cells/Liter of green algae", "setting": "green algae [5]; 8/6 post-treatment", "result": "2.1 × 10^4 Cells/Liter"}, {"measurement": "Cells/Liter of green algae", "setting": "green algae [5]; 8/19 post-treatment", "result": 0, "unit": "Cells/Liter"}, {"measurement": "Cells/Liter of green algae", "setting": "green algae [5]; 9/6 post-treatment", "result": "1.7 × 10^4 Cells/Liter"}, {"measurement": "Cells/Liter of green algae", "setting": "green algae [5]; 9/23 post-treatment", "result": "4.5 × 10^5 Cells/Liter"}, {"measurement": "Cells/Liter of green algae", "setting": "green algae [5]; 11/21 post-treatment (normal winter reduction)", "result": "2.5 × 10^3 Cells/Liter"}, {"measurement": "Cells/Liter of green algae", "setting": "green algae [5]; 12/14 post-treatment", "result": 0, "unit": "Cells/Liter"}, {"measurement": "numbers of other phytoplankton", "setting": "green algae [5]; seven days after treatment", "result": "essentially unchanged or increased in numbers"}]}]}
